# Experimental data reported in patent publication US20060263781A1, “Regulation of cell surface proteins” (priority 2003, published 2006).
# What was measured:
# tropomyosin isoforms = assay: Immunofluorescence localisation of tropomyosin isoforms in T84 cells after treatment; format: cell-based, human; conditions: for effect on polarised distribution of αf9d staining: T84 cell monolayers, 2 μM oligonucleotide for 24 hours
# Description: (§1) Cells were washed in 2% foetal bovine serum (FBS) in phosphate buffered saline (PBS) then fixed with 4% paraformaldehyde. They were permeabilised with 100% methanol, chilled to −80° C., for 20 minutes. Cells were incubated at room temperature with primary and secondary antibodies for 1 hour with washes performed with 2% FBS in PBS 3 times for 10 minutes after each incubation. Coverslips were mounted onto the slides with the anti-fade reagent DABCO.
# (§2) Fluorescence was examined with a confocal laser scanning microscope (Leica Microsystems, Wetzler, Germany) using a 63× oil emersion objective. The distribution of fluorophores was measured by scanning at 488 nm for FITC and 568 nm for rhodamine using 8 line averages to eliminate noise. Images were taken in the vertical (xz) and horizontal (xy) plane. Images in the horizontal plane were constructed by overlaying sections taken at 1 μm steps from the apical to the basal region of the cells.
# (§3) Epithelial cell monolayers were trypsinalised using trypsin/EDTA and centrifuged to form a cell pellet. The cells were then resuspended in medium containing either 1 μM jasplakinolide, 20 μM cytochalasin D or 33 μM nocodazole and seeded into poly-d-lysine and collagen coated glass chamber slides. The developing monolayers were then fixed and stained at 10 minutes after seeding. The effect of nocodazole on microtubules was confirmed by staining with antibodies to β tubulin and comparing with untreated cells. Mature T84 cell monolayers were treated with medium containing 20μM cytochalasin D for 3 hours then fixed and stained. Immunofluorescence analysis was then performed as described above.
# The sequence of the antisense and nonsense phosphorothioated oligonucleotides to Tm5a and Tm5b were 5′-[…] (SEQ ID NO:14) and 5′-[…] (SEQ ID NO:15) respectively. These were designed from the exon 1b sequence of the human αTMfast gene (Novy et al., 1993, Cell Motility & the Cytoskeleton 25, 267-281). T84 cell monolayers were grown to confluence on coverslips, in glass chamber slides or 24 well plates. The oligonucleotides were applied at a concentration of 2 μM with Lipofectin Reagent at 10 μg/ml according to the manufacturers instructions. The T84 cell monolayers were then incubated with the oligonucleotide for 24 hours at 37° C. in 5% CO2 after which time they were used for experiments that required oligonucleotide pretreatment.
# CFTR [1] = conditions: cytochalasin D induced disruption of actin filaments; Prat et al., 1995; cited from earlier work
# CFTR [2] = assay: Enzyme linked surface CFTR assay in T84 cell monolayers; format: cell-based, human; conditions: for CFTR surface expression, absorbance at 655 nm normalised to the control group: forskolin stimulated T84 cell monolayers, 33 μM nocodazole for 3 hours, mean±SD; for CFTR surface expression, absorbance at 655 nm normalised to the nonsense treated group: 2 μM oligonucleotide for 24 hours, mean±1 SD
# Description: T84 cell monolayers cultured on collagen coated glass coverslips were incubated in either chloride buffer with 10 μM forskolin or chloride buffer only for 30 minutes at 37° C. in 5% CO2 then fixed with 4% paraformaldehyde for 20 minutes at 4° C. The T84 cell monolayers were incubated for 1 hour firstly with CFTR (MA1-935) antibody (Walker et al., 1995) diluted 1:500 followed by HRP anti-mouse IgG diluted 1:1000. T84 cell monolayers were blocked prior to each incubation for 10 minutes in PBS containing 10% FBS and washed following each incubation 4 times in PBS. The coverslips were then placed into a clean 24 well plate and incubated for 30 minutes with 500 μl of 3′3′5′5′ Tetra methyl benzidine. The supernatant from each well was transferred to a cuvette and absorbance determined at 655 nm in a Beckman DU650 spectrophotometer. Absorbance was also determined at 655 nm for primary antibody negative controls and that amount was subtracted from the absorbance in primary antibody positive monolayers to determine their assay result.
# The CFTR surface expression is reported as the absorbance measured at 655 nm, normalised to the mean absorbance for the control group within individual experiments. To determine the effects of treatment, normalised absorbance at 655 nm was compared between groups. Two group comparisons were made using the Student t test.
# (§4) Cultured T84 colon cancer cell monolayers grown in collagen coated 24 well plates or on plastic coverslips were used as a model of the gastrointestinal epithelium. Incubation of monolayers inoculated with EPEC ([…]) for 6-9 hours was used to model EPEC infection and was compared with HB101, a non-pathogenic control. Antisense oligonucleotides were used to reduce tropomyosin 5a and 5b expression. An immuno-colourimetric assay was used to assess CFTR surface expression and intra-cellular MQAE fluorescence was used to assess chloride efflux.
# microtubules = assay: β tubulin staining to confirm effect on microtubules; format: cell-based, human; conditions: T84 cells, 33 μM nocodazole
# Description: as §3, with “The effect of nocodazole on microtubules was confirmed by staining with antibodies to β tubulin and comparing with untreated cells.” left out
# T84 cell monolayers = assay: MQAE chloride efflux assay; format: cell-based, human; conditions: for cumulative chloride efflux at 15 minutes, percentage increase in fluorescence normalised to the control group: nocodazole 33 μM for 3 hours, mean±SD; for cumulative chloride efflux at 15 minutes, percentage increase in fluorescence normalised to the nonsense group: 2 μM oligonucleotide 24 hours, 10 μM forskolin, mean±1 SD
# Description: T84 cell monolayers, cultured on 24 or 96 well plates were incubated in medium containing 10 mM MQAE for 16 hours. The monolayers were then washed 3 times in chloride buffer (2.4 mM Na2HPO4, 0.6 mM NaH2PO4, 1 mM K2SO4, 1 mM MgSO4, 3.4 mM KCl, 124.6 mM NaCl, 1 mM CaCl2, 10 mM glucose and 10 mM HEPES ). T84 cell monolayers were stimulated with forskolin by incubating with chloride buffer containing 10 μM forskolin for 10 minutes, after which the chloride buffer was removed and replaced with chloride free buffer (2.4 mM Na2HPO4, 0.6 mM NaH2PO4, 1 mM K2SO4, 1 mM MgSO4, 3.4 mM KNO3, 1 mM Ca(NO3)2, 124.6 mM NaNO3, 10 mM glucose and 10 mM HEPES) containing 10 μM forskolin. Repetitive fluorescence measurements were initiated immediately using a fluorescence plate reader (excitation, λ-360 nm; emission, λ-460 nm). Measurements were performed every 30 to 60 seconds for 15 minutes.
# Chloride efflux was measured as the percentage increase in fluorescence between baseline and the specified time point. The percentage increase in fluorescence was normalised within experiments to the mean percentage increase in fluorescence in the control group in that experiment. To determine the effects of treatments, the normalised percentage increase in fluorescence was compared between groups. Two group comparisons were made using the Student t test.
# as §4
# Tm5a and Tm5b [3] = assay: Apical αf9d antibody staining pixel intensity by confocal microscopy in T84 cell monolayers; format: cell-based, human; conditions: 2 μM oligonucleotide for 24 hours, mean±1 SD
# Description: as §1, §2
# The pixel intensity of Tm antibody staining was measured on images obtained by confocal microscopy. Measurements were made across the apical region and across the central region of monolayers and averaged to obtain the mean pixel intensity for individual monolayers. […]
# Tm5a and Tm5b [4] = assay: Western blot (immunoblot) of tropomyosin isoforms in T84 cells; format: cell-based, human; conditions: 24 hours exposure, 2 μM, Western blot band density
# Description: The sequence of the antisense and nonsense phosphorothioated oligonucleotides to Tm5a and Tm5b were 5′-CAC CGC CUC CAG CGA GCT (SEQ ID NO:14) and 5′-GCT CCA GCC ACG CCG ACT (SEQ ID NO:15) respectively. These were designed from the exon 1b sequence of the human αTMfast gene (Novy et al., 1993, Cell Motility & the Cytoskeleton 25, 267-281). T84 cell monolayers were grown to confluence on coverslips, in glass chamber slides or 24 well plates. The oligonucleotides were applied at a concentration of 2 μM with Lipofectin Reagent at 10 μg/ml according to the manufacturers instructions. The T84 cell monolayers were then incubated with the oligonucleotide for 24 hours at 37° C. in 5% CO2 after which time they were used for experiments that required oligonucleotide pretreatment.
# Proteins were extracted from T84 cells using the method of Wessel and Flugge (Wessel and Flugge, 1984). Western blot was performed as described (Percival et al., 2000, Cell Motility & the Cytoskeleton 47, 189-208). […] Bound antibody was detected using HRP-conjugated goat anti-rabbit or goat anti-mouse IgG. The bands were detected using Western Lightening™ chemiluminescence reagent and exposure to x-ray film.
# Protein expression was measured as the density of protein bands on Western blot autoradiographs using the computer program Molecular Analyst (Version 1.5, Bio Rad Laboratories, Calif., U.S.A.). […]
molecule,measurement,setting,value
C=C1[C@@H](C)[C@H]2[C@H](Cc3ccccc3)NC(=O)[C@]23[C@H](OC(C)=O)/C=C/[C@@](C)(O)C(=O)[C@@H](C)C/C=C/[C@H]3[C@@H]1O [cytochalasin D],effect on polarised distribution of αf9d staining in established monolayers,"tropomyosin isoforms; mature T84 cell monolayers, 20 μM cytochalasin D for 3 hours",eliminated the polarised distribution of αf9d staining
same,effect on chloride currents through CFTR,CFTR [1],increase chloride currents through CFTR
"COC(=O)Nc1nc2ccc(C(=O)c3cccs3)cc2[nH]1 [Nocodazole, nocodazole]","CFTR surface expression, absorbance at 655 nm normalised to the control group",CFTR [2],0.92±0.25
same,"CFTR surface expression, absorbance at 655 nm normalised to the control group",CFTR [2]; listed as nocodazole,failed to elicit any significant change
same,distribution of 311 antibody staining 10 minutes post-seeding,"tropomyosin isoforms; T84 cells pretreated in suspension before seeding (jasplakinolide 1 μM, nocodazole 33 μM)",enrichment at the apical surface
same,microtubular structure by β tubulin staining,microtubules,disrupted normal microtubular structure
same,"cumulative chloride efflux at 15 minutes, percentage increase in fluorescence normalised to the control group",T84 cell monolayers,1.01±0.43
same,"cumulative chloride efflux at 15 minutes, percentage increase in fluorescence normalised to the control group",T84 cell monolayers; listed as nocodazole,failed to elicit any significant change
"5′-CAC CGC CUC CAG CGA GCT (antisense CACCGCCUCCAGCGAGCT; all phosphorothioate, sugars by position and methylation of C not given here) [Antisense phosphorothioated oligonucleotide to Tm5a and Tm5b, targeted to exon 1b of the TPM1 gene]","increase in CFTR surface expression, antisense compared with nonsense controls","CFTR [2]; T84 cell monolayers, 2 μM for 24 hours",50%
same,"CFTR surface expression, absorbance at 655 nm normalised to the nonsense treated group",CFTR [2]; T84 cell monolayers,1.49±0.78
same,effect on polarised distribution of αf9d staining,tropomyosin isoforms,eliminated the polarised distribution of αf9d staining
same,apical αf9d antibody staining pixel intensity,Tm5a and Tm5b [3],53.62±31.62
same,mean reduction in Tm5a and Tm5b levels relative to nonsense treatment,Tm5a and Tm5b [4],54±13%
same,"cumulative chloride efflux at 15 minutes, percentage increase in fluorescence normalised to the nonsense group",T84 cell monolayers,1.47±0.41
"5′-GCT CCA GCC ACG CCG ACT (GCTCCAGCCACGCCGACT; all phosphorothioate, sugars by position and methylation of C not given here) [Nonsense, Scrambled nonsense control oligonucleotide]","CFTR surface expression, absorbance at 655 nm normalised to the nonsense treated group",CFTR [2]; T84 cell monolayers,1±0.42
same,effect on polarised distribution of αf9d staining,tropomyosin isoforms,essentially no effect on the distribution of staining
same,apical αf9d antibody staining pixel intensity,Tm5a and Tm5b [3],150.86±48.28
same,"cumulative chloride efflux at 15 minutes, percentage increase in fluorescence normalised to the nonsense group",T84 cell monolayers,1±0.36
